“Also recorded” adds a separate entry of the source. Where two headings read alike, the source gives them in different places. No end group written: not given here.
Columns and labels:
[1] = test system: human primary cell cultures; settings: North 2016; cited from earlier work
[2] = test system: mouse macrophage-like cell line; settings: medium of dusquetide-incubated splenocytes, North 2016; cited from earlier work
[3] = test system: dextran sulphate sodium (DSS)-induced colitis; settings: Kudrimoti 2016, levels comparative to maximal steroid use; cited from earlier work
[4] = test system: fractionated radiation-induced mucositis; test: Hamster model of fractionated radiation-induced mucositis; format: in vivo
Description: Dusquetide has been extensively studied in animal models of both mucosal damage (where damage associated molecular patterns (DAMPS)) trigger the innate defense system) and bacterial infection (where pathogen associated molecular patterns (PAMPS)) trigger the innate defense system).

[5] = test system: mouse macrophage-like cell line; test: Signalling after dusquetide exposure in mouse macrophage-like cell line; format: cell-based
NFKB = NFKB activation on dusquetide binding to p62; format: cell-based
MRSA [6] = test: IV MRSA challenge model (bacteremia) in mice
p62 = p62 (Homo sapiens, UniProt Q13501); settings: Yu 2009; cited from earlier work
Sequence of p62 (Q13501 whole entry): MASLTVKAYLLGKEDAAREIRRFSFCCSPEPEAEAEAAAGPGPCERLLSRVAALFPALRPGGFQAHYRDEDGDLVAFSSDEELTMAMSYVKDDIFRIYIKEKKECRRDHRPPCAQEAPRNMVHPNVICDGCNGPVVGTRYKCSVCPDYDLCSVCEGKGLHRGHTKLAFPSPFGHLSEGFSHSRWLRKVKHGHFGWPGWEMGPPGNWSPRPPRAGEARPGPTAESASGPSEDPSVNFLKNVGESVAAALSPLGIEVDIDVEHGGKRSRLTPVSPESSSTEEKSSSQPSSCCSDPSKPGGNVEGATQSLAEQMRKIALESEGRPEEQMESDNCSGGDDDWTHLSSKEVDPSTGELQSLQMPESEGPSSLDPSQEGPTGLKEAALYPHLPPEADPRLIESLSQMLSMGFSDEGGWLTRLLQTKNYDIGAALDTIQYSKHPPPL

[7] = test system: mucositis (oral and lower GI tract); settings: mice after chemotherapy, Kudrimoti 2016; cited from earlier work
[8] = test system: response to lipopolysaccharide; settings: North 2016, Yu 2009; cited from earlier work
[9] = test system: human blood challenged with LPS; test: LPS challenge of human blood exposed to dusquetide in vitro; format: cell-based; settings: dusquetide exposure in vitro
Description: (§1) The innate immune system involves numerous cell types distributed throughout the body in both circulating and tissue-resident compartments. The interaction of all the cells defines the aggregate response. […] Nevertheless, cellular and molecular studies with individual cell types or sub-groups of cell types are informative but must be interpreted cautiously when used to predict the behavior of the system in vivo. […] By contrast, when dusquetide exposure of either mouse or human blood occurs in vitro, although the TNFα response to LPS challenge is unaffected, the MCP-1 response is reduced. The responses of mouse and human primary blood cells to dusquetide in this in vitro setting are quantitatively and qualitatively similar.

[10] = test system: nonhuman primate (NHP) primary cell cultures; settings: North 2016; cited from earlier work
[11] = test system: mouse primary cell cultures; settings: North 2016; cited from earlier work
[12] = test system: NHP blood cultured with LPS; test: Ex vivo LPS challenge of NHP blood after in vivo dusquetide; settings: for IL-1β response to LPS / MIP-la response to LPS: NHP
Description: (§2) Further studies have explored the ability of blood cells to respond to a pathogen (or pathogen-like) challenge in vitro after prior exposure to dusquetide in vivo—an “ex vivo” test system that provides information about the “responsiveness” of the innate defense system. The responsiveness of mouse and NHP innate defense systems have been characterized by measuring changes in cytokine and chemokine production following ex vivo challenge of blood cells with LPS. In general, no evidence of broad-spectrum activation was observed.

[13] = test system: human epithelial cell lines; test: Signalling after dusquetide exposure in human epithelial cell lines; format: cell-based
[14] = test system: mouse blood cells challenged with LPS; test: Ex vivo LPS challenge of mouse blood cells after in vivo dusquetide
Description: as §1, §2

[15] = test system: dextran sulphate sodium (DSS)-induced colitis; design: species or system male C57BL/6 mice; settings: mouse, in vivo
MRSA [16] = test: MRSA infection in athymic nude mice; format: in vivo
[17] = test system: mouse blood challenged with LPS; test: LPS challenge of mouse blood exposed to dusquetide in vitro; format: cell-based; settings: dusquetide exposure in vitro
Description: as §1

[18] = test system: severe oral mucositis (SOM); test: Phase 2 study of oral mucositis in head and neck cancer patients receiving radiation and cisplatin (IDR-OM-01); format: in vivo, human
Protocol: The Phase 2 study was designed to examine the effects of dusquetide on ameliorating OM in patients with oral or oropharyngeal squamous cell carcinoma who were undergoing therapy with fractionated radiation (2.0-2.2 Gy per day for a total planned cumulative dose of 55-75 Gy) and chemotherapy with cisplatin given either as “low dose” (30-40 mg/m2 every week) or as “high dose” or “aggressive” cisplatin (80-100 mg/m2 given every 3 weeks). Dusquetide was evaluated in this dose ranging study at doses of 1.5, 3.0 (3 patients only) and 6.0 mg/kg.

[19] = Phase 1 studies, safety of IV dusquetide; format: in vivo, human; settings: dose levels of 0.15 to 8.0 mg/kg
Protocol: The dosage form of dusquetide is an aqueous, aseptically processed, sterile solution for injection. Each vial contains 5 mL of a 60 mg/mL solution (300 mg of dusquetide). Dusquetide is formulated in water for injection and pH adjusted to a target value of 6.0. The preferred formulation of the present invention contains no excipients and has an osmolality of ˜300 mOsm/kg. Dusquetide drug product is diluted in sterile saline to the appropriate concentration for injection, determined on a mg/kg basis by the recipient's weight at a dose level of 1.5 mg/kg. Diluted dusquetide is administered as an intravenous (IV) infusion in 25 mL over 4 minutes, once every third day.
(§3) In a Phase 1 study, patients received single ascending doses (0.15 to 8.0 mg/kg) and multiple ascending doses (daily 7× 0.5 to 6.5 mg/kg) of dusquetide as 4-minutes IV infusions. To determine the pharmacodynamic profile of dusquetide, cytokine and chemokine analytes were quantified after 4 h of in vitro stimulation of whole blood with LPS (E. coli) to determine dusquetide effects on dose, gender and any extended impact on PD.

[20] = target: sequestosome-1, also known as p62 (Homo sapiens, UniProt Q13501); settings: Yu 2009, Zhang 2022; cited from earlier work
Sequence of sequestosome-1, also known as p62 (Q13501 whole entry): as above

MRSA [21] = settings: mouse, in vivo
[22] = test system: severe oral mucositis (SOM); test: Phase 3 study IDR-OM-02, oral mucositis in head and neck cancer patients receiving chemoradiation; format: in vivo, human; settings: 1.5 mg/kg twice per week
Protocol: Subsequently a Phase 3 international study (Study IDR-OM-02) evaluated dusquetide in the treatment of […] in head and neck cancer patients receiving concomitant chemoradiation therapy (at least 55 Gy radiation therapy and 80 to 100 mg/m2 cisplatin received every third week). 266 patients were enrolled in the randomized, blinded and placebo-controlled study assessing treatment with 1.5 mg/kg dusquetide administered twice per week as a 4-minute infusion.

bacterial challenge = test: Bacterial challenge in mice rendered leukopenic by cyclophosphamide; format: in vivo, mouse
[23] = test system: MRSA, S. aureus, K. pneumoniae, B. pseudomallei; settings: mouse, in vivo; cited from earlier work
[24] = test system: cytokine or chemokine levels; test: Circulating cytokine and chemokine levels in normal mice; format: in vivo, mouse
[25] = test system: severe oral mucositis (SOM); settings: cited from earlier work; for overall infection rate: Kudrimoti 2016
[26] = test system: whole blood stimulated with LPS (E. coli); test: Phase 1 study: in vitro LPS stimulation of whole blood from SAD and MAD volunteers, cytokine and chemokine analytes; format: in vivo, human
Protocol: Solid lines indicate the mean response, dashed lines the respective 95% CI for the population.
as §3
The following panel of cytokine and chemokine analytes were quantified: IL-la; IL-1B; IL-6; IL-1ra; TNFα; Tumor Necrosis Factor-Receptor II (TNF RII); MCP-1; Macrophage Inflammatory Protein-1alpha (MIP-la; also known as CCL3); MIP-1B (also known as CCL4) and RANTES (also known as CCL5). The dusquetide-treated population (N=56) in the combined SAD and MAD data set was subdivided into “low dose” (N=26, 0.15-2.0 mg/kg) and “high dose” (N=30; 3.0-8.0 mg/kg) groups and these were compared to the combined placebo group (N=22).

[27] = test system: cytokine and chemokine levels; test: Circulating cytokine and chemokine levels in NHPs; format: in vivo, NHP
[28] = hamster, fractionated radiation
[29] = longer term, 12-24 h after administration
[30] = short term, 1 to 4 h after administration, modest
[31] = dusquetide in vivo before culture
[32] = 1.5 mg/kg, all patients, vs placebo
[33] = 1.5 mg/kg, every 3rd week cisplatin subpopulation
[34] = 1.5 mg/kg, every 3rd week cisplatin subpopulation, vs placebo
[35] = low dose group (0.15-2.0 mg/kg)
[36] = low dose group (0.15-2.0 mg/kg), 1 h timepoint, vs placebo or high dose

## RIVPA-NH2 [dusquetide, L-arginyl-L-isoleucyl-L-valyl-L-prolyl-L-alanine-amide]
[1]
  expression patterns of chemokines such as MCP-1: modulated
[2]
  IL-6 response of macrophage cell line: suppressing
  IL-10 response of macrophage cell line: suppressing
  TNFα response of macrophage cell line: suppressing
[3]
  protection of the lower GI: further protection
[4]; every 2nd or 3rd day at 25 mg/kg
  efficacy by regimen: effective
[4]; [28]
  duration of SOM: decrease
  intensity of SOM: decrease
[5]
  C/EBPB activation: transient activation
  p38 MAP kinase activation: transient activation
NFKB
  activation of NFKB: does not cause persistent activation
MRSA [6]; IV, therapeutic or prophylactic administration
  relation to antibiotic administration: complementary to antibiotic administration
MRSA [6]; mice, IV
  IV dose at which efficacy is consistently seen: greater than or equal to 5 mg/kg
MRSA [6]; mice, depending on the dose level
  duration of PD effects of a single dose: up to 5 days
MRSA [6]; mouse, in vivo
  circulating half-life: short
p62
  p62 interaction with PKCS: no effect
  p62 interaction with RIP1: selectively alters
  p62 interaction with TRAF6: no effect
[7]
  duration of mucositis: decreased
  intensity of mucositis: decreased
[8]
  ILIra relative to IL-1B: increasing
  TNFRII relative to TNFα: increasing
[9]
  MCP-1 response to LPS challenge: reduced
  TNFα response to LPS challenge: unaffected
[10]
  expression patterns of chemokines such as MCP-1: modulated
[11]
  expression patterns of chemokines such as MCP-1: modulated
[12]; [29]
  IL-1β response to LPS: mild elevations
  MIP-la response to LPS: mild elevations
[12]; [30]
  IL-1β response to LPS: decreases
  MIP-la response to LPS: decreases
[12]; blood from dusquetide-treated NHP
  IL-1ra response to LPS: marked increase
[12]; primate, dusquetide in vivo before culture
  responses of most analytes (47 cytokines and chemokines) to LPS: insignificant changes
[13]
  C/EBPB activation: transient activation
  p38 MAP kinase activation: transient activation
[14]; [31]
  ex vivo MCP-1 response to LPS: increases
  ex vivo TNFα response to LPS: decreases
  responses of most analytes (58 cytokines and chemokines) to LPS: insignificant changes
[14]; dusquetide in vivo vs saline
  ex vivo MCP-3 response to LPS: increases
[15]
  degree of response compared with 3 mg/kg prednisolone of 0.5 mg/kg budesonide: similar
MRSA [16]
  survival: survival benefit
[17]
  MCP-1 response to LPS challenge: reduced
  TNFα response to LPS challenge: unaffected
[18]; 1.5 mg/kg, all patients
  median duration of SOM: 9 days
  reduction in median duration of SOM vs placebo: 50%
[18]; [32]
  reduction in median AUC for the WHO Grade-time calculation: 39%
  reduction in the incidence of SOM: 7%
[18]; [33]
  decrease in median duration of SOM vs placebo: 67%
  median duration of SOM: 10 days
  onset of disease: no impact
[18]; [34]
  reduction in median AUC WHO Grade-time calculation: 51%
  relative reduction in incidence of SOM: 18%
[18]; 1.5 mg/kg, weekly cisplatin
  AUC (WHO Grade-time): 10.5
  decrease in median duration of SOM vs placebo: 50%
  median duration of SOM: 5 days
  reduction in the AUC vs placebo: 55%
[18]; dose ranging 1.5, 3.0 and 6.0 mg/kg
  most efficacious dose: 1.5 mg/kg
[19]
  safety of administration: safely administered
[20]
  binding to sequestosome-1 (p62): bind (but not inhibit); also recorded: binds
MRSA [21]
  swelling of abraded skin: reduced
  ulceration of abraded skin: reduced
[22]; intent to treat (ITT) population
  response in duration of SOM: not
[22]; per protocol (PP) population
  response in duration of SOM: statistically significant response
Bacterial challenge
  survival: survival benefit
[23]
  bacterial growth: reduced bacterial growth
  survival: increased survival
[24]
  cytokine or chemokine levels: no changes
[25]; Kudrimoti 2016, Kudrimoti 2017
  formulation of oral ulcers: suppress
[25]
  overall infection rate: reduction
[25]; listed as Dusquetide
  overall infection rate: decreasing
[26]; high dose group (3.0-8.0 mg/kg)
  measured cytokine and chemokine analytes: very similar to the placebo group
[26]; [35]
  ratio IL-1ra/IL-1B: more distinct increased responses
  ratio TNF RII/TNFα: more distinct increased responses
[26]; [36]
  IL-1B after LPS stimulation of whole blood: slightly decreased
  IL-1ra after LPS stimulation of whole blood: slightly increased
  IL-1x after LPS stimulation of whole blood: slightly decreased
  TNFα after LPS stimulation of whole blood: slightly decreased
[27]; NHP, transient
  MCP-1 levels: modest changes
[27]; NHPs
  IL-1ra level: marked but variable increase
  levels of most cytokines and chemokines: no substantial changes
